In patent US20130189727A1, “Methods And Compositions For Cellular Imaging And Cancer Cell Detection Using Light Harvesting Conjugated Polymer-Biomolecular Conjugates” (NATIONAL UNIVERSITY OF SINGAPORE, priority 2010, published 2013):
Like-named read-outs stand apart in the source and are kept apart here. Blank lines part the entries; values can stand above or below the compound they belong to. {NH2} = amino group (5'-NH2) on the aptamer

Legend:
[1] = target: T1, lysozyme (Gallus gallus, UniProt P00698); conditions: in solution; read-out: Kd measured in solution; cited from earlier work
T1 construct: Hen egg white lysozyme, BSA, and human trypsin were ordered from Sigma-Aldrich; purchased Sigma-Aldrich; host or cells: hen egg white
T1 sequence (P00698 19-147): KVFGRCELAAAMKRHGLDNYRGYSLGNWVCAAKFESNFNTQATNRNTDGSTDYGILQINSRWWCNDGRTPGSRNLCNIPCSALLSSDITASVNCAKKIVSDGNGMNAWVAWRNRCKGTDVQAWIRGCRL

[2] = target: T1, lysozyme; assay: Aptamer/lysozyme binding affinity (Kd); set-up: species or system Hen
Procedure: The LOD is estimated to be 0.36 μg/mL (2.4 pmol, based on 3σ from six independent measurements) using a standard fluorometer, which is more sensitive to aptamer-based electrochemical and fluorescent arrays and is similar to that obtained from a standard of ELISA. (See Vidal, M. L., et al., Agric. Food Chem. 2005, 53, 2379-2385, the entire teachings of which are incorporated herein by reference). However, the strategy of using Apt-NP as a platform for lysozyme detection reduces the bonding affinity (Kd) of the aptamer to its target. […] (See, for example, Cox, J. C.; Ellington, A. D., Bioorg. Med. Chem. 2001, 9, 2525-2531, the entire teachings are incorporated herein by reference). The large Kd on the NP surface is detrimental to assay sensitivity, could be the result of: (1) the steric hindrance induced by the folded aptamer upon binding to lysozyme which prevents the adjacent aptamers from folding into G-quartet structure; (2) the binding of lysozyme on the Apt-NP surface hampers subsequent aptamer/lysozyme binding due to electrostatic repulsion.

[3] = Photostability in stained cells under continuous laser scanning (CLSM); assay type: physicochemical; conditions: excitation at 405 nm; MCF-7 cells
Procedure: FIG. 2 is time-resolved confocal laser scanning microscopy (CLSM) fluorescence images of SKBR-3 breast cancer cells stained by affibody-attached P2 under laser scanning for (a) 0 min and (b) 15 minutes.
FIG. 8 is confocal image of Hela cells under continuous excitation (λmax=488 nm) after 0 min (A) and 15 min (B) and the fluorescence/transmission overlapped images of the corresponding cells (C, D) taken after incubation with P3-phalloidin for 2 h at 0.5 μM.
I0 is the initial fluorescence intensity of the sample […].
Targeted fluorescence imaging of HER2-positive cancer cells using a P2-affibody conjugate was investigated. […]
To explore the potential of the CPE-g-PEG molecular brush in long-term clinical applications, the photostability and cytotoxicity of P4.1 were investigated. Changes in the CLSM images of P4.1-stained MCF-7 cells under continuous laser scanning were monitored to evaluate the photostability of P4.1 in cells. […] In comparison, most commercial dyes (such as fluorescein, rhodamine and Cy5) usually lose their fluorescence within 3 minutes under CLSM laser illumination. […]
The uptake of HCPEPEI-1/DNA and HCPEPEI-2/DNA polyplexes by COS-7 cells was monitored using confocal lasing scanning microscopy (CLSM). […] The dual modal HCPEPEIs fluorescent gene vectors could facilitate in tracking the delivery of genes due to the intrinsic fluorescence from the HCPE core. […]

Compound: 5′-NH2-ATCTACGAATTCATCAGGGCTAAAGAGTGCAGAGTTACTTAG (ATCTACGAATTCATCAGGGCTAAAGAGTGCAGAGTTACTTAG; 5' {NH2}, sugars by position and backbone not given here) [aptamer]
Kd [1]: 0.031 µM
apparent Kd ([2]; aptamer on silica NP surface, lysozyme concentration at half-maximum signal): approximately 9 μg/mL
Kd ([2]; aptamer on silica NP surface, lysozyme concentration at half-maximum signal, read-out: apparent Kd): ~0.625 µM
Kd on NP surface relative to Kd in solution ([2]; larger): 20 fold

Compound: O=C1OC2(c3ccc(O)cc3Oc3cc(O)ccc32)c2ccc(N=C=S)cc21 [FITC]
decrease of fluorescence intensity after continuous excitation [3]: ~56%

water solubility: approximately 20 mg/mL
Compound: Poly[9,9-bis(2-(2-(2-methoxyethoxy)ethoxy)ethyl)fluorenevinylene-alt-9,9-bis(4-sulfonatobutyl)fluorenevinylene Sodium Salt] [PFVSO3]
